# In PMC2680961, “Homologous desensitization of signalling by the alpha (α) isoform of the human thromboxane A2 receptor: A specific role for nitric oxide signalling” (Biochimica et Biophysica Acta, 2007):
# How the values were obtained:
# TPα = biological target: T1, TPα (Homo sapiens, UniProt P21731); test: IP3 generation, HEK.TPα cells; type: cell-based; conditions: 1 μM U46619 2 min, washout, restimulation at 60 min
# T1 construct: expressed in transfected cells
# T1 sequence (P21731 1-343): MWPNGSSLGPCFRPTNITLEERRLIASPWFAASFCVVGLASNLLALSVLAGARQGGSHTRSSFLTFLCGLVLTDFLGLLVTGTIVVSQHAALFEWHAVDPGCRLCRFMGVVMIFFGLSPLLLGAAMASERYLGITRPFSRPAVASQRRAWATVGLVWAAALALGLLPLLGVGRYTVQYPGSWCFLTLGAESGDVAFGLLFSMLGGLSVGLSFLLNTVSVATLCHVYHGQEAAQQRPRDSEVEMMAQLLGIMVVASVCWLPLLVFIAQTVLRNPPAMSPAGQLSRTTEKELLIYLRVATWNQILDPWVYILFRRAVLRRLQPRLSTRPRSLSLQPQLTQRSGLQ
# Procedure: Intracellular IP3 levels were measured as previously described [[33,43]]. Briefly, cells were harvested by scraping, washed twice in ice-cold PBS and resuspended at approximately 2 × 10^6 cells/200 μl in HEPES-buffered saline (HBS; […], 4.7 mM KCl, 2.2 mM CaCl2, 1.2 mM KH2PO4, 11 mM glucose, 15 mM HEPES–NaOH, pH 7.4), 10 mM LiCl (Walsh et al., 2000). […] Thereafter, cells were stimulated with 1 μM U46619 at 37 °C for 2 min. To assess agonist-mediated homologous desensitization, cells (2 × 10^6 cells/200 μl) were stimulated with 1 μM U46619 at 37 °C for 2 min (Primary stimulation); thereafter, cells were collected by centrifugation (900×g, 5 min); were washed once in 200 μl HBS, 10 mM LiCl and finally resuspended in 200 μl HBS, 10 mM LiCl and were left to recover for 60 min; thereafter, cells were re-stimulated with 1 μM U46619 at 37 °C for 2 min (secondary stimulation). All ligands and […] were pre-diluted in HBS such that 50 μl added to 200 μl of cell suspension in HBS gave the desired final concentration. To determine basal IP3 levels, an equivalent volume (50 μl) of the vehicle HBS was added instead of ligand. The level of IP3 produced was quantified by radio competition assay essentially as described. […]
# TPα^S331,340A = biological target: T2, TPα^S331,340A (Homo sapiens, UniProt P21731, S331A/S340A); test: Intracellular calcium mobilization, HEK.TPα^S331,340A cells; type: cell-based
# T2 construct: expressed in transfected cells
# Procedure: Measurement of intracellular calcium mobilization ([Ca^2+]i) in FURA2/AM preloaded HEK 293 cell lines (2 × 10^6 cells/dish), each transiently co-transfected with pADVA (10 μg), and pCMV:Gαq (25 μg), was carried out as previously described. To investigate the effect of GRK2/βARK1 on TP-mediated [Ca^2+]i mobilization, HEK.TPα or HEK.TPβ cells (2 × 10^6 cells/dish) were co-transfected with pADVA (10 μg), pCMV:Gαq (25 μg) along with pRK5:βARK1^495–689 (25 μg), encoding a dominant negative form of GRK2/βARK1[39]. […] For each measurement of [Ca^2+]i mobilization, aliquots of cells were diluted to 0.825 × 10^6 cells/ml in HBSSHB, 1 mM CaCl2 and FURA2 fluorescence was recorded (2 ml aliquots of cells) at 37^ °C with gentle stirring with a Perkin Elmer-Cetus LS50-B spectrofluorometer at excitation wavelengths of 340 nm and 380 nm and emission wavelength of 510 nm, respectively.
# Cells were stimulated with the TP agonist U46619 (1 μM) and changes in [Ca^2+]i mobilization were monitored as a function of time. […]
# The vehicle had no effect on U46619-mediated [Ca^2+]i mobilization. Calibration of the signal was performed in each sample by adding 0.2% Triton X-100 to obtain the maximal fluorescence ratio (Rmax) and then 1 mM EGTA to obtain the minimal fluorescence ratio (Rmin). […]
# T2 sequence (P21731 whole entry S331A/S340A): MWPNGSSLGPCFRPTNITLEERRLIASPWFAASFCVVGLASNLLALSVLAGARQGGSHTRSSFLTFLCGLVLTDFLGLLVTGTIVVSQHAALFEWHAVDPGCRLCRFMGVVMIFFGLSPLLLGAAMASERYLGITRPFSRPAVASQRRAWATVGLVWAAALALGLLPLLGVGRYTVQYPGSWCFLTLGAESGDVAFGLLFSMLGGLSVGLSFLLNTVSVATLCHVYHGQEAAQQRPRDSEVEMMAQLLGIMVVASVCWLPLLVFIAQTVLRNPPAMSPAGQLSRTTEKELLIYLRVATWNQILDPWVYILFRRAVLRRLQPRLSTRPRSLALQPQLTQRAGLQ
smiles,measurement,setting,value
CCCCC[C@H](O)/C=C/[C@@H]1[C@@H](C/C=C\CCCC(=O)O)[C@H]2CO[C@@H]1C2 [U46619],IP3 generation following secondary restimulation after U46619 pre-incubation,TPα,almost completely inhibited IP3 generation
same,"Δ[Ca2+]i, U46619-induced","TPα^S331,340A; primary 1 μM U46619 4 min",160 ± 7.2 nM
same,"Δ[Ca2+]i, U46619-induced","TPα^S331,340A; secondary 1 μM U46619 at 15 min",60 ± 10 nM
